What was measured:
Assay in all cases: combination Emax (second highest fraction inhibited in the dose matrix, 72 h); higher = more inhibition; extreme values may be limits of the assay
[1] = test system: HL-60 (Acute Myeloid Leukemia)
Method in brief: (§1)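 Cell lines in DMEM/F12 or RPMI with 10% FBS were plated in 1536-well plates, held 24 hours at 37°C, 5% CO2, then given two-drug dose matrices for 72 hours (DMSO typically 0.2%). Viability was read by CellTiter-Glo 2.0 luminescence and scaled as inhibition from 0 (vehicle wells) to 1 (blank wells). Combination Emax is the second-highest inhibition in the matrix; Bliss excess is observed combination effect minus expected EA + EB − EA·EB, EA and EB being single-agent effects.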

[2] = test system: SR (Other Blood Carcinomas)
Method in brief: as §1

[3] = test system: DiFi (Colorectal Carcinoma)
Method in brief: as §1

[4] = test system: SU-DHL-8 (B-Cell Non-Hodgkin's Lymphoma)
Method in brief: as §1

[5] = test system: BL-41 (Burkitt's Lymphoma)
Method in brief: as §1

[6] = test system: NCI-H1792 (Lung Adenocarcinoma)
Method in brief: as §1

CHP-212 (Neuroblastoma) = test system: CHP-212 (Neuroblastoma)
Method in brief: as §1

[7] = test system: MS751 (Cervical Carcinoma)
Method in brief: as §1

WM-115 (Melanoma) = test system: WM-115 (Melanoma)
Method in brief: as §1

[8] = test system: KM12 (Colorectal Carcinoma)
Method in brief: as §1

[9] = test system: K-562 (Chronic Myelogenous Leukemia)
Method in brief: as §1

[10] = test system: SW837 (Colorectal Carcinoma)
Method in brief: as §1

[11] = test system: TE-6 (Esophageal Squamous Cell Carcinoma)
Method in brief: as §1

[12] = test system: GR-ST (B-Lymphoblastic Leukemia)
Method in brief: as §1

ES8 (Ewing's Sarcoma) = test system: ES8 (Ewing's Sarcoma)
Method in brief: as §1

[13] = test system: KARPAS-45 (T-Lymphoblastic Leukemia)
Method in brief: as §1

[14] = test system: MKN28 (Gastric Carcinoma)
Method in brief: as §1

[15] = test system: CAMA-1 (Breast Carcinoma)
Method in brief: as §1

[16] = test system: HDQ-P1 (Breast Carcinoma)
Method in brief: as §1

Compound	combination Emax [1]	combination Emax [2]	combination Emax [3]	combination Emax [4]	combination Emax [5]	combination Emax [6]	combination Emax (CHP-212 (Neuroblastoma))	combination Emax [7]	combination Emax (WM-115 (Melanoma))	combination Emax [8]	combination Emax [9]	combination Emax [10]	combination Emax [11]	combination Emax [12]	combination Emax (ES8 (Ewing's Sarcoma))	combination Emax [13]	combination Emax [14]	combination Emax [15]	combination Emax [16]
CS(=O)(=O)CCNCc1ccc(-c2ccc3ncnc(Nc4ccc(OCc5cccc(F)c5)c(Cl)c4)c3c2)o1 [Lapatinib] + C[C@@H](Oc1cc(-c2cnn(C3CCNCC3)c2)cnc1N)c1c(Cl)ccc(F)c1Cl [Crizotinib] (first compound max 10 µM, 7x7, partner max 10 µM)	0.941	1	1	0.694	0.96	0.924	0.988	0.987	0.877	0.93	0.962	0.772	0.835	0.988	1	1	0.779	0.321	0.936
COc1nnc2ccc(N3CCC(c4ccc(OCCN5CCN(C)C(=O)[C@H]5C)cc4)CC3)nn12 [AZD5153] + Cn1cnc2c(F)c(Nc3ccc(Br)cc3Cl)c(C(=O)NOCCO)cc21 [Selumetinib] (first compound max 1 µM, 7x7, partner max 10 µM)	0.966	0.675	0.962	0.955	0.863	0.78	0.989	0.849	0.832	0.786	0.469	0.753	0.711	0.782	0.681	1	0.416	0.506	0.431
NC1(C(=O)N[C@@H](CCO)c2ccc(Cl)cc2)CCN(c2ncnc3[nH]ccc23)CC1 [Capivasertib] + Cn1cnc2c(F)c(Nc3ccc(Br)cc3Cl)c(C(=O)NOCCO)cc21 [Selumetinib] (first compound max 10 µM, 7x7, partner max 10 µM)	0.874	0.582	0.905	0.0919	0.287	0.504	0.946	0.263	0.885	0.868	0.425	0.603	0.736	0.678	0.533	0.627	0.241	0.693	0.596
C[C@@H](c1ccc2nccn2c1)n1nnc2ncc(-c3cnn(C)c3)nc21 [Savolitinib] + Cc1c2c(nn1C)CSCc1cc(n(C)n1)CSc1cc(c3ccccc3c1)OCCCc1c(C(=O)O)n(C)c3c-2c(Cl)ccc13 [AZD5991] (first compound max 1 µM, 7x7, partner max 1 µM)	1	0.772	0.257	0.697	1	0.214	0.787	0.773	0.185	0.159	0.159	0.124	0.308	0.145	0.292	0.882	0.0861	0.494	0.2
COc1nnc2ccc(N3CCC(c4ccc(OCCN5CCN(C)C(=O)[C@H]5C)cc4)CC3)nn12 [AZD5153] + Cc1c2c(nn1C)CSCc1cc(n(C)n1)CSc1cc(c3ccccc3c1)OCCCc1c(C(=O)O)n(C)c3c-2c(Cl)ccc13 [AZD5991] (first compound max 1 µM, 7x7, partner max 1 µM)	1	0.968	0.768	0.998	1	0.877	1	0.919	0.707	0.648	0.5	0.571	0.77	0.798	0.891	1	0.462	0.951	0.412
CC(=O)c1c(C)c2cnc(Nc3ccc(N4CCNCC4)cn3)nc2n(C2CCCC2)c1=O [Palbociclib] + Cc1c2c(nn1C)CSCc1cc(n(C)n1)CSc1cc(c3ccccc3c1)OCCCc1c(C(=O)O)n(C)c3c-2c(Cl)ccc13 [AZD5991] (first compound max 10 µM, 7x7, partner max 1 µM)	0.994	0.993	0.548	0.683	0.998	0.571	0.882	0.833	0.293	0.752	0.132	0.161	0.425	0.719	0.65	0.99	0.133	0.408	0.263
COc1cc2ncnc(Nc3ccc(F)c(Cl)c3)c2cc1OCCCN1CCOCC1 [Gefitinib] + CC(C)n1c(=O)n(C)c2cnc3cc(F)c(-c4ccc(OCCCN5CCCCC5)nc4)cc3c21 [AZD1390] (first compound max 10 µM, 7x7, partner max 0.3 µM)	0.0178	0.2	0.919	0.142	0.279	0.231	0.157	0.133	0.139	0.044	0.13	0.128	0.685	0.39	0.178	0.644	0.0764	0.111	0.383
COc1nnc2ccc(N3CCC(c4ccc(OCCN5CCN(C)C(=O)[C@H]5C)cc4)CC3)nn12 [AZD5153] + CC1(C)CCC(CN2CCN(c3ccc(C(=O)NS(=O)(=O)c4ccc(NCC5CCOCC5)c([N+](=O)[O-])c4)c(Oc4cnc5[nH]ccc5c4)c3)CC2)=C(c2ccc(Cl)cc2)C1 [Venetoclax] (first compound max 1 µM, 7x7, partner max 1 µM)	0.99	0.749	0.586	0.663	0.87	0.676	0.885	0.702	0.365	0.643	0.437	0.551	0.572	0.788	0.719	1	0.446	0.456	0.325
COc1nnc2ccc(N3CCC(c4ccc(OCCN5CCN(C)C(=O)[C@H]5C)cc4)CC3)nn12 [AZD5153] + CCN(CCO)CCCOc1ccc2c(Nc3cc(CC(=O)Nc4cccc(F)c4)[nH]n3)ncnc2c1 [AZD2811] (first compound max 1 µM, 7x7, partner max 1 µM)	0.984	0.913	0.667	0.982	0.874	0.668	0.964	0.789	0.37	0.66	0.517	0.57	0.632	0.818	0.994	1	0.43	0.497	0.431
CC(=O)c1c(C)c2cnc(Nc3ccc(N4CCNCC4)cn3)nc2n(C2CCCC2)c1=O [Palbociclib] + CC1(C)CCC(CN2CCN(c3ccc(C(=O)NS(=O)(=O)c4ccc(NCC5CCOCC5)c([N+](=O)[O-])c4)c(Oc4cnc5[nH]ccc5c4)c3)CC2)=C(c2ccc(Cl)cc2)C1 [Venetoclax] (first compound max 10 µM, 7x7, partner max 1 µM)	0.736	0.94	0.47	0.37	0.312	0.465	0.481	0.128	0.0976	0.683	0.0413	0.0079	0.264	0.715	0.461	1	0.0507	0.142	0.109
COc1nnc2ccc(N3CCC(c4ccc(OCCN5CCN(C)C(=O)[C@H]5C)cc4)CC3)nn12 [AZD5153] + C[C@@H]1COCCN1C2=NC(=NC(=C2)C3(CC3)[S@](=N)(=O)C)C4=C5C=CNC5=NC=C4 [AZD6738] (first compound max 1 µM, 7x7, partner max 10 µM)	0.985	0.937	0.844	0.996	1	0.805	0.967	0.911	0.481	0.88	0.821	0.756	0.79	0.846	0.907	1	0.51	0.661	0.571
COc1nnc2ccc(N3CCC(c4ccc(OCCN5CCN(C)C(=O)[C@H]5C)cc4)CC3)nn12 [AZD5153] + C=CCn1c(=O)c2cnc(Nc3ccc(N4CCN(C)CC4)cc3)nc2n1-c1cccc(C(C)(C)O)n1 [AZD1775] (first compound max 1 µM, partner max 1 µM)	0.932	0.96	0.727	0.994	1	0.83	0.958	0.935	0.338	0.853	0.616	0.715	0.731	0.832	0.779	1	0.525	0.453	0.523
Cn1cnc2c(F)c(Nc3ccc(Br)cc3Cl)c(C(=O)NOCCO)cc21 [Selumetinib] + CCN(CCO)CCCOc1ccc2c(Nc3cc(CC(=O)Nc4cccc(F)c4)[nH]n3)ncnc2c1 [AZD2811] (first compound max 10 µM, 7x7, partner max 1 µM)	0.918	0.942	0.813	0.354	0.629	0.423	0.972	0.639	0.434	0.676	0.32	0.554	0.353	0.316	0.996	0.926	0.191	0.22	0.393
